These results are taken from publication PMC2853259 (Analytical biochemistry, 2010).

The assay deals with Paraoxonase 1 (PON1) (Homo sapiens, UniProt P27169). It is filed as cell-based.
Paraoxonase 1 (PON1), sequence (P27169 2-355): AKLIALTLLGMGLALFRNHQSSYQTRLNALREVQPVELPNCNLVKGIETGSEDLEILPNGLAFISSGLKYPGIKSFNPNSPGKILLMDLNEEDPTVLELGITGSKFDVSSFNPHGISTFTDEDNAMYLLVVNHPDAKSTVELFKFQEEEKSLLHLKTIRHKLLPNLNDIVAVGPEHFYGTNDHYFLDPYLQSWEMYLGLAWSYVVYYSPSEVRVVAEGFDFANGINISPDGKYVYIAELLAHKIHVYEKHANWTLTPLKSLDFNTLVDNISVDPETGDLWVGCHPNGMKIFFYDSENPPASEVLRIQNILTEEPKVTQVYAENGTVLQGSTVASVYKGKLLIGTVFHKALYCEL

For `Oc1ccc2ccccc2n1` [2HQ, 2-hydroxyquinoline], the midpoint of inhibition, the IC50, lay at 5.4 ± 3.6 µM.
